The source of these data is patent US8916535B2, “Use of 2′,5′-oligoadenylate derivative compounds” (Protea Biopharma N.V., priority 2010, dated 2014).

For one assay, the system named is XMRV. The experiment in a line: XMRV-replication in acutely infected CD4+ T lymphocytes from healthy individuals (ELISA of culture supernatants). The format is cell-based. As to conditions: freshly isolated CD4+ T cells treated with 10, 100 and 1000 nM then infected with XMRV; 96 h post-infection; compared to untreated controls. How it is done: First, the activity of 2-5A^N1B on XMRV-replication is tested in CD4^+ T lymphocytes purified from healthy individuals. To determine the effective dose of 2-5A^N1B during acute XMRV infection, freshly isolated CD4^+ T cells are treated with three concentrations of 2-5A^N1B (10, 100 and 1000 nM) and then infected with XMRV. XMRV-replication is assessed in culture supernatants by ELISA.
(In an ELISA, binding on a coated surface is turned into a signal by an enzyme label.)

A further assay has as its system wild-type XMRV. The experiment in a line: XMRV replication in chronically infected CD4+ cells derived from XMRV-positive individuals (ELISA of supernatants). The format is cell-based. To be noted: purified CD4+ T lymphocytes from XMRV-positive adults; in vitro; compared to untreated cells. How it is done: Secondly, the activity of 2-5A^N1B is tested on chronically infected cells derived from XMRV-positive individuals. XMRV-positive adults are recruited from the clinic. The antiviral response to 2-5A^N1B in vitro is assessed by ELISA in the supernatants of cultured CD4+ cells.

In the case of “N^1-benzyl-3′-deoxyadenylyl-(2′-5′)-3′-deoxyadenylyl-(2′-5′)-3′-deoxyadenylyl-(2′-2″)—N^9-[(2″-hydroxy-ethoxy)-methyl]-adenine [2-5A^N1B]”, the XMRV-replication result in the assay on XMRV is given as “significant decrease”. For the same substance, the “replication of wild-type XMRV” value in the assay on wild-type XMRV is given as “significantly inhibits”.
